Experimental data: patent US20240002470A1, “Method for separation and/or detection and/or in vitro quantification of infectious compounds in biological material” (priority 2020, published 2024)

B1: β2GPI: plasma glycoprotein called β2-glycoprotein I, grafted on beads as the reference (protein, UniProt P02749 20-345, looked up)
Beta-2-glycoprotein 1: GRTCPKPDDLPFSTVVPLKTFYEPGEEITYSCKPGYVSRGGMRKFICPLTGLWPINTLKCTPRVCPFAGILENGAVRYTTFEYPNTISFSCNTGFYLNGADSAKCTEEGKWSPELPVCAPIICPPPSIPTFATLRVYKPSAGNNSLYRDTAVFECLPQHAMFGNDTITCTTHGNWTKLPECREVKCPFPSRPDNGFVNYPAKPTLYYKDKATFGCHDGYSLDGPEEIECTKLGNWSAMPSCKASCKVPVKKATVVYQGERVKIQEKFKNGMLHGDKVSFFCKNKEKKCSYTEDAQCIDGTIEVPKCFKEHSSLAFWKTDASDVKPC
modifications: grafted on beads

Experiments:
[1] = system: ISAV virus (Infectious salmon anemia virus); test: Capture of ISAV virus on magnetic microbeads coated with pepβ2GPI, RT-PCR quantification; assay type: binding; details: for ISAV copies: virus captured on coated beads from culture supernatant
Excerpt: The virus used is the ISAV virus (Infectious salmon anemia virus), responsible for anemia in salmon, originating from a culture supernatant.
The microbeads, intended to fix the virus, which are used are magnetic microbeads sold by the company MERCK under the name “Estapor® super-paramagnetic microspheres” which have a diameter between […].
(§1) The pepβ2GPI were grafted onto the microbeads according to the supplier's recommendations. In summary, the microbeads are suspended in phosphate buffer at a pH of 6.0. The beads are then activated, for 15 minutes, in the presence of 1-ethyl-3-(3-Dimethylaminopropyl) carbodiimide and N-hydroxysuccinimide. After washing with HCl, 2 mM, the beads are suspended in a phosphate buffer at a pH of 7.5, containing the pepβ2GPI. The concentration of pepβ2GPI in this coupling buffer is 20 mg/L; the microbeads are incubated in the buffer with gentle and constant shaking at a temperature of 25° C. for 3 hours. The microbeads are then centrifuged at 1,500 rpm and the supernatant is removed; the centrifugation pellet is suspended in the same buffer as that used for the coupling of pepβ2GPI, which forms the suspension of microbeads coated with pepβ2GPI which we want to test.
(§2) One hundred microliters of viral culture supernatant to be studied are placed in an Eppendorf tube with 900 microliters of Tris buffer at a pH of 7.5 and 10 microliters of microbeads. The tubes are shaken horizontally to mix the microbeads well, and each tube is incubated at 37° C. or at room temperature (RT=22° C.) for 30 minutes. In each tube, the microbeads are then separated from the liquid phase by means of a magnet, placed externally against the wall of the tube, and the viral RNA is extracted. The beads are brought into contact with a viral lysis buffer, included in an RNA extraction kit: QIAamp RNA viral kit, sold by QIAGEN and the viral RNA is isolated according to the seller's recommendations.
The RNA is then transcribed into complementary DNA, in the presence of reverse transcriptase, according to the following protocol:
Finally, the complementary DNA (cDNA) is amplified by chain reaction using a polymerase and quantified according to the following protocol: […]

[2] = system: IPN virus (Infectious pancreatic necrosis virus); test: Capture of IPN virus on magnetic microbeads coated with pepβ2GPI, RT-PCR quantification; assay type: binding; details: for IPN Copies: virus captured on coated beads from culture supernatant
Method: as §1, §2
The virus used is the IPN virus (Infectious pancreatic necrosis virus), responsible for necrosis of the pancreas in salmon, originating from a culture supernatant. The same protocol as described in example 1 was carried out.

[3] = system: HCV virus (hepatitis C virus); test: Capture of HCV virus from patient plasma on magnetic microbeads coated with pepβ2GPI, RT-PCR quantification; assay type: binding; details: for HCV/run copies: per run, virus captured on coated beads from plasma of patients
Method: as §1, §2
The virus used is the HCV virus (hepatitis C virus), present in the plasma of patients. The same protocol as described in example 1 was carried out.

E. coli B6054 = test: Capture of E. coli B6054 on magnetic microbeads, culture on TS agar and counting; assay type: binding, Escherichia coli; details: E. coli B6054 colonies from captured beads
E. coli ATCC 8739 = test: Capture of E. coli ATCC 8739 on magnetic microbeads, culture and counting; assay type: binding, Escherichia coli; details: E. coli ATCC 8739 colonies from captured beads
Method: (§3) One ml of the culture of bacteria to be studied is placed in a hemolysis tube. 100 μl of buffer are added, the trade name of which is TTGB, then 20 μl of microbeads. The tube is stirred horizontally, to mix the microbeads well, and incubated at 37° C. or at room temperature (TA=22° C.) for half an hour. At the end of the incubation, the microbeads are separated from the liquid phase by means of a magnet, placed externally against the wall of the tube. The microbeads are then washed twice with LB medium and then resuspended in 1 ml of BTS culture medium (Tripticase-Soy broth) having the following formulation: […]
(§4) This culture medium is brought to a boil and then autoclaved, to make it sterile, before use. 20 μl of the microbead suspension are taken and spread in a Petri dish containing TS agar (Trypticase-Soya agar) having the following formulation: […]
(§5) The Petri dishes are incubated at +37° C. for 24 hours. The bacteria that have grown on the agar are then counted.
The used bacteria were obtained from a collection strain of Escherichia coli (E. coli), ATCC 8739. The same experiment as that described in the previous example was carried out.

[4] = system: bacteria present in treated wastewater; test: Capture of bacteria present in treated wastewater on magnetic microbeads, culture and counting; assay type: binding
Method: as §3, §4, §5
The beads, on which β2GPI and peptides derived therefrom were grafted, were used to capture the bacteria present in treated wastewater. This water was recovered at the outlet of the purifier from the Grau-du-Roi treatment plant. The same experiment as that described in the previous example was carried out.

Yeast = test: Capture from blood culture on magnetic microbeads, culture on TS agar: yeast; assay type: binding
Method: (§6) The beads, on which β2GPI and peptides derived therefrom were grafted, were used for the capture of bacteria present in human blood and highlighted by blood culture.
(§7) These blood cultures are carried out by placing a venous blood sample […] in aerobic vials of BacT/ALERT®3D type. These flasks are then incubated in an automated system at 35° C. for at least 5 days. The bottles are equipped with a colorimetric detection system with a sensor located at the base of each bottle. Carbon dioxide produced by growing bacteria changes the color of the sensor; this change in color is detected by an automated system and indicates the presence of bacterial growth: these blood cultures are said to be positive. In the BacT/ALERT®3D vials there are particles of activated carbon, which inhibit antibiotics potentially present in the blood of patients, thereby improving the detection of microorganisms. To confirm the presence of bacteria in blood cultures which have been found positive, the hospital performs a culture on blood agar. […]
(§8) To test the interaction of microbeads coated with β2GPI and the peptides derived from them, with bacteria present in the blood, 1 ml of blood culture is taken from each sample and placed in a 15 ml tube. […] The bacteria that have grown on the agar were then counted.

SCN = test: Capture from blood culture on magnetic microbeads, culture on TS agar: SCN; assay type: binding
Method: as §6, §7, §8

E. faecium = test: Capture from blood culture on magnetic microbeads, culture on TS agar: E. faecium; assay type: binding
Method: as §6, §7, §8

S. maltophilia = test: Capture from blood culture on magnetic microbeads, culture on TS agar: S. maltophilia; assay type: binding
Method: as §6, §7, §8

| Molecule | % compared to β2GPI ([1]; ISAV copies captured relative to β2GPI beads) | ISAV copies [1] | % compared to β2GPI ([2]; IPN copies captured relative to β2GPI beads) | IPN Copies [2] [copies] | % compared to β2GPI ([3]; HCV copies captured relative to β2GPI beads) | HCV/run copies [3] [copies] | % compared to β2GPI (E. coli B6054) [%] | % compared to β2GPI (E. coli ATCC 8739) [%] | % compared to β2GPI [4] [%] | % compared to β2GPI (Yeast) [%] | % compared to β2GPI (SCN) [%] | % compared to β2GPI (E. faecium) [%] | % compared to β2GPI (S. maltophilia) [%] |
| --- | --- | --- | --- | --- | --- | --- | --- | --- | --- | --- | --- | --- | --- |
| H-((SSLAFWK)2-K)2-K—NH2 [Peptide P11] | (140%) | 78 350 copies | (175%) | 21 | (86%) | 97 | 91 | 99 | 105 | 89 | 101 | 88 | 29 |
| B1 |  | 55 800 copies |  | 12 |  | 113 | 100 | 100 | 100 | 100 | 100 | 100 | 100 |
